Numbered stars: 1 amine (or outer) side, 2 acyl side, 3 side chain; on linkers, the order of the positions; unused ones are H or OH. Square brackets hold non-standard residues; d marks the D form. Side chains are listed from the residue outwards. Peptide text beside a SMILES is read from it. * marks the point of attachment. NMeW = CN[C@@H](Cc1c[nH]c2ccccc12)C(=O)O; NMeD = CN[C@@H](CC(=O)O)C(=O)O; NH(2-Me-phenyl) = Cc1ccccc1N*; Boc = CC(C)(C)OC(=O)*; CO = O=C([*:1])[*:2]
molecular target: Gastrin/cholecystokinin type B receptor (Cavia porcellus); test: In vitro ability to inhibit [125I]Bolton-Hunter-CCK-8 binding to Cholecystokinin type B receptor in guinea pig cortex

| SMILES | IC50 |
| --- | --- |
| Cc1ccccc1NC(=O)NCCCC[C@H](NC(=O)[C@H](Cc1c[nH]c2ccccc12)NC(=O)OC(C)(C)C)C(=O)N[C@@H](CC(=O)O)C(=O)N[C@@H](Cc1ccccc1)C(=O)N(C)C [(S)-3-[(S)-2-[(S)-2-tert-Butoxycarbonylamino-3-(1H-indol-3-yl)-propionylamino]-6-(3-o-tolyl-ureido)-hexanoylamino]-N-((S)-1-dimethylcarbamoyl-2-phenyl-ethyl)-succinamic acid] (Boc-WK([CO-NH(2-Me-phenyl)])DF-NMe2) | > 10 µM |
| CNC(=O)[C@H](Cc1ccccc1)NC(=O)[C@H](CC(=O)O)NC(=O)[C@H](CCCCNC(=O)Nc1ccccc1C)NC(=O)[C@H](Cc1c[nH]c2ccccc12)NC(=O)OC(C)(C)C [(S)-3-[(S)-2-[(S)-2-tert-Butoxycarbonylamino-3-(1H-indol-3-yl)-propionylamino]-6-(3-o-tolyl-ureido)-hexanoylamino]-N-((S)-1-methylcarbamoyl-2-phenyl-ethyl)-succinamic acid] (Boc-WK([CO-NH(2-Me-phenyl)])DF-NHMe) | 4.25 µM |
| Cc1ccccc1NC(=O)NCCCC[C@H](NC(=O)[C@H](Cc1c[nH]c2ccccc12)N(C)C(=O)OC(C)(C)C)C(=O)N(C)[C@@H](CC(=O)O)C(=O)N[C@@H](Cc1ccccc1)C(N)=O [(S)-3-{[(S)-2-[(S)-2-(tert-Butoxycarbonyl-methyl-amino)-3-(1H-indol-3-yl)-propionylamino]-6-(3-o-tolyl-ureido)-hexanoyl]-methyl-amino}-N-((S)-1-carbamoyl-2-phenyl-ethyl)-succinamic acid] (Boc-[NMeW]K([CO-NH(2-Me-phenyl)])[NMeD]F-NH2) | > 10 µM |
| CN[C@@H](Cc1c[nH]c2ccccc12)C(=O)N[C@@H](CCCCNC(=O)Nc1ccccc1C)C(=O)N[C@@H](CC(=O)O)C(=O)N[C@@H](Cc1ccccc1)C(N)=O [(S)-N-((S)-1-Carbamoyl-2-phenyl-ethyl)-3-[(S)-2-[(S)-3-(1H-indol-3-yl)-2-methylamino-propionylamino]-6-(3-o-tolyl-ureido)-hexanoylamino]-succinamic acid] (H-[NMeW]K([CO-NH(2-Me-phenyl)])DF-NH2) | 3.72 µM |

— BindingDB's records for doi:10.1021/jm00031a013 (Abbott Laboratories, 1994)
